According to ChEMBL document CHEMBL2434921, “New synthetic aliphatic sulfonamido-quaternary ammonium salts as anticancer chemotherapeutic agents” (2013):
Calls of active or inactive are those of the source. No cut-off for these calls is given here.

Tests used:
MDA-MB-231 [1] = assay: Growth of human MDA-MB-231 cells at 3 uM after 48 hrs by SRB assay; values are per cent of control; conditions: MDA-MB-231, 48 h
PC-3 [2] = assay: Growth inhibition of human PC3 cells at 0.1 uM after 48 hrs by SRB assay; values are per cent of control; conditions: PC-3, 48 h
ACHN [3] = assay: Growth of human ACHN cells at 10 uM after 48 hrs by SRB assay
MDA-MB-231 [4] = assay: Growth of human MDA-MB-231 cells at 0.1 uM after 48 hrs by SRB assay; conditions: MDA-MB-231, 48 h
ACHN [5] = assay: Growth of human ACHN cells at 0.3 uM after 48 hrs by SRB assay
PC-3 [6] = assay: Growth inhibition of human PC3 cells after 48 hrs by SRB assay; format: functional; conditions: PC-3, 48 h
NCI-H23 [7] = assay: Growth inhibition of human NCI-H23 cells at 3 uM after 48 hrs by SRB assay; values are per cent of control; conditions: NCI-H23, 48 h
PC-3 [8] = assay: Growth inhibition of human PC3 cells at 1 uM after 48 hrs by SRB assay; values are per cent of control; conditions: PC-3, 48 h
ACHN [9] = assay: Growth inhibition of human ACHN cells after 48 hrs by SRB assay; format: functional
[10] = biological target: Rho-related GTP-binding protein RhoB (Homo sapiens) (UniProt P62745); assay: Transactivation of RhoB (unknown origin) transfected in human HeLa cells at 5 uM measured over 10 secs by dual luciferase reporter gene assay; format: cell-based
Rho-related GTP-binding protein RhoB (Homo sapiens), sequence (P62745 whole entry): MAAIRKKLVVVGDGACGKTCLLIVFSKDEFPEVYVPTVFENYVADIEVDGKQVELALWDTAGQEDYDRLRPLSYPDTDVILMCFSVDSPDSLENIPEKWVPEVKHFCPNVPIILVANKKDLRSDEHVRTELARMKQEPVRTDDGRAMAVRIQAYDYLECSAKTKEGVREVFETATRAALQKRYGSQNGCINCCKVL

NUGC-3 [11] = assay: Growth inhibition of human NUGC3 cells at 3 uM after 48 hrs by SRB assay; values are per cent of control; conditions: NUGC-3, 48 h
ACHN [12] = assay: Growth of human ACHN cells at 0.1 uM after 48 hrs by SRB assay
HCT-15 [13] = assay: Growth inhibition of human HCT15 cells at 1 uM after 48 hrs by SRB assay; values are per cent of control; conditions: HCT-15, 48 h
NUGC-3 [14] = assay: Growth inhibition of human NUGC3 cells at 10 uM after 48 hrs by SRB assay; values are per cent of control; conditions: NUGC-3, 48 h
NCI-H23 [15] = assay: Growth of human NCI-H23 cells at 10 uM after 48 hrs by SRB assay; conditions: NCI-H23, 48 h
HCT-15 [16] = assay: Growth inhibition of human HCT15 cells at 10 uM after 48 hrs by SRB assay; values are per cent of control; conditions: HCT-15, 48 h
HCT-15 [17] = assay: Growth inhibition of human HCT15 cells at 0.1 uM after 48 hrs by SRB assay; values are per cent of control; conditions: HCT-15, 48 h
MDA-MB-231 [18] = assay: Growth inhibition of human MDA-MB-231 cells at 0.3 uM after 48 hrs by SRB assay; values are per cent of control; conditions: MDA-MB-231, 48 h
PC-3 [19] = assay: Growth inhibition of human PC3 cells at 3 uM after 48 hrs by SRB assay; values are per cent of control; conditions: PC-3, 48 h
NCI-H23 [20] = assay: Growth of human NCI-H23 cells at 0.3 uM after 48 hrs by SRB assay; conditions: NCI-H23, 48 h
NUGC-3 [21] = assay: Growth of human NUGC3 cells at 0.1 uM after 48 hrs by SRB assay; conditions: NUGC-3, 48 h
MDA-MB-231 [22] = assay: Growth of human MDA-MB-231 cells at 1 uM after 48 hrs by SRB assay; conditions: MDA-MB-231, 48 h
NUGC-3 [23] = assay: Growth inhibition of human NUGC3 cells after 48 hrs by SRB assay; format: functional; conditions: NUGC-3, 48 h
NUGC-3 [24] = assay: Growth of human NUGC3 cells at 0.3 uM after 48 hrs by SRB assay; conditions: NUGC-3, 48 h
HCT-15 [25] = assay: Growth inhibition of human HCT15 cells after 48 hrs by SRB assay; format: functional; conditions: HCT-15, 48 h
PC-3 [26] = assay: Growth of human PC3 cells at 10 uM after 48 hrs by SRB assay; conditions: PC-3, 48 h
ACHN [27] = assay: Growth inhibition of human ACHN cells at 3 uM after 48 hrs by SRB assay; values are per cent of control
HCT-15 [28] = assay: Growth of human HCT15 cells at 3 uM after 48 hrs by SRB assay; conditions: HCT-15, 48 h
NCI-H23 [29] = assay: Growth inhibition of human NCI-H23 cells after 48 hrs by SRB assay; format: functional; conditions: NCI-H23, 48 h
NUGC-3 [30] = assay: Growth of human NUGC3 cells at 1 uM after 48 hrs by SRB assay; conditions: NUGC-3, 48 h
NCI-H23 [31] = assay: Growth inhibition of human NCI-H23 cells at 1 uM after 48 hrs by SRB assay; values are per cent of control; conditions: NCI-H23, 48 h
ACHN [32] = assay: Growth inhibition of human ACHN cells at 1 uM after 48 hrs by SRB assay; values are per cent of control
PC-3 [33] = assay: Growth inhibition of human PC3 cells at 0.3 uM after 48 hrs by SRB assay; values are per cent of control; conditions: PC-3, 48 h
MDA-MB-231 [34] = assay: Growth of human MDA-MB-231 cells at 10 uM after 48 hrs by SRB assay; conditions: MDA-MB-231, 48 h
NCI-H23 [35] = assay: Growth inhibition of human NCI-H23 cells at 0.1 uM after 48 hrs by SRB assay; values are per cent of control; conditions: NCI-H23, 48 h
MDA-MB-231 [36] = assay: Growth inhibition of human MDA-MB-231 cells after 48 hrs by SRB assay; format: functional; conditions: MDA-MB-231, 48 h
HCT-15 [37] = assay: Growth of human HCT15 cells at 0.3 uM after 48 hrs by SRB assay; conditions: HCT-15, 48 h

GI50 (PC-3 [6]) [nM] | GI50 (ACHN [9]) [nM] | Activity [10] | Structure (SMILES) | growth, % of control at 3 µM (MDA-MB-231 [1]) [%] | growth, % of control at 0.1 µM (PC-3 [2]) [%] | growth, % of control at 10 µM (ACHN [3]) [%] | growth, % of control at 0.1 µM (MDA-MB-231 [4]) [%] | growth, % of control at 0.3 µM (ACHN [5]) [%] | growth, % of control at 3 µM (NCI-H23 [7]) [%] | growth, % of control at 1 µM (PC-3 [8]) [%] | growth, % of control at 3 µM (NUGC-3 [11]) [%] | growth, % of control at 0.1 µM (ACHN [12]) [%] | growth, % of control at 1 µM (HCT-15 [13]) [%] | growth, % of control at 10 µM (NUGC-3 [14]) [%] | growth, % of control at 10 µM (NCI-H23 [15]) [%] | growth, % of control at 10 µM (HCT-15 [16]) [%] | growth, % of control at 0.1 µM (HCT-15 [17]) [%] | growth, % of control at 0.3 µM (MDA-MB-231 [18]) [%] | growth, % of control at 3 µM (PC-3 [19]) [%] | growth, % of control at 0.3 µM (NCI-H23 [20]) [%] | other results
560 | 1290 | Active | CCCCCCCCCCCCCCCCS(=O)(=O)N(C)CC[N+](C)(CC)CC | 35.7 | 100 | 5 | 98.5 | 89.5 | 22.5 | 50.7 | 9.2 | 90.4 | 76.2 | 1.2 | 0.4 | 21.1 | 98.5 | 96.2 | 8.6 | 90.5 | growth, % of control at 0.1 µM (NUGC-3 [21]): 93.6%; growth, % of control at 1 µM (MDA-MB-231 [22]): 68.4%; GI50 (NUGC-3 [23]): 390 nM; growth, % of control at 0.3 µM (NUGC-3 [24]): 88.1%; GI50 (HCT-15 [25]): 1490 nM; growth, % of control at 10 µM (PC-3 [26]): -21.6%; growth, % of control at 3 µM (ACHN [27]): 48.7%; growth, % of control at 3 µM (HCT-15 [28]): 42.7%; GI50 (NCI-H23 [29]): 620 nM; growth, % of control at 1 µM (NUGC-3 [30]): 30.2%; growth, % of control at 1 µM (NCI-H23 [31]): 51.3%; growth, % of control at 1 µM (ACHN [32]): 72.7%; growth, % of control at 0.3 µM (PC-3 [33]): 92.8%; growth, % of control at 10 µM (MDA-MB-231 [34]): 15.6%; growth, % of control at 0.1 µM (NCI-H23 [35]): 90.7%; GI50 (MDA-MB-231 [36]): 1120 nM; growth, % of control at 0.3 µM (HCT-15 [37]): 100%
530 | 1350 | Active | C=CC[N+](CC)(CC)CCN(C)S(=O)(=O)CCCCCCCCCCCCCC | 32.2 | 91.5 | 20.3 | 89.6 | 90.5 | 10 | 46.2 | -2.9 | 92.8 | 85.1 | -6.4 | -5.7 | 19.2 | 91.8 | 87.4 | 22.7 | 76.5 | growth, % of control at 0.1 µM (NUGC-3 [21]): 79.1%; growth, % of control at 1 µM (MDA-MB-231 [22]): 54.3%; GI50 (NUGC-3 [23]): 210 nM; growth, % of control at 0.3 µM (NUGC-3 [24]): 70.5%; GI50 (HCT-15 [25]): 2030 nM; growth, % of control at 10 µM (PC-3 [26]): 4.6%; growth, % of control at 3 µM (ACHN [27]): 46.6%; growth, % of control at 3 µM (HCT-15 [28]): 62.9%; GI50 (NCI-H23 [29]): 300 nM; growth, % of control at 1 µM (NUGC-3 [30]): 14.3%; growth, % of control at 1 µM (NCI-H23 [31]): 31.1%; growth, % of control at 1 µM (ACHN [32]): 73.4%; growth, % of control at 0.3 µM (PC-3 [33]): 89.8%; growth, % of control at 10 µM (MDA-MB-231 [34]): 14.5%; growth, % of control at 0.1 µM (NCI-H23 [35]): 82.2%; GI50 (MDA-MB-231 [36]): 710 nM; growth, % of control at 0.3 µM (HCT-15 [37]): 93.9%
300 | 1640 | Active | CCCCCCCCCCCCCCS(=O)(=O)NCCC[N+](C)(C)CC | 43.8 | 89.8 | 24.5 | 83.1 | 91.4 | -10.6 | 33.4 | 11.2 | 91.4 | 68.2 | -4.7 | -45.5 | 23.4 | 97 | 86.4 | 6.9 | 88.7 | growth, % of control at 0.1 µM (NUGC-3 [21]): 85.1%; growth, % of control at 1 µM (MDA-MB-231 [22]): 66.2%; GI50 (NUGC-3 [23]): 290 nM; growth, % of control at 0.3 µM (NUGC-3 [24]): 69%; GI50 (HCT-15 [25]): 1140 nM; growth, % of control at 10 µM (PC-3 [26]): -11.5%; growth, % of control at 3 µM (ACHN [27]): 42.5%; growth, % of control at 3 µM (HCT-15 [28]): 36.9%; GI50 (NCI-H23 [29]): 330 nM; growth, % of control at 1 µM (NUGC-3 [30]): 34%; growth, % of control at 1 µM (NCI-H23 [31]): 24%; growth, % of control at 1 µM (ACHN [32]): 92.5%; growth, % of control at 0.3 µM (PC-3 [33]): 72.7%; growth, % of control at 10 µM (MDA-MB-231 [34]): 23.9%; growth, % of control at 0.1 µM (NCI-H23 [35]): 93.3%; GI50 (MDA-MB-231 [36]): 1170 nM; growth, % of control at 0.3 µM (HCT-15 [37]): 94.5%
